We go through one compound from patent US20130267594A1, “PROLYL HYDROXYLASE INHIBITORS AS RADIATION MITIGATORS AND RADIATION PROTECTORS” (priority 2010, published 2013).

One data set has as its system H3K9me3. The data set is described as follows: H3K9me3 immunofluorescent staining in MEFs (FIG. 10A). Type of data set: cell-based, mouse. The conditions noted are these: DMOG 1 mM 24 hr. As to the method: In FIG. 10A MEFs were incubated in either solvent (Control: DMSO) or DMOG (1 mM) for 24 hr. H3K9me3 levels were detected by immunofluorescent staining with antibody to H3K9me3 and co-stained with DAPI to locate nuclear DNA. In FIG. 10B HEK293T cells were transiently transfected with vector or KDM4A and allowed to recover for 30 hrs. Cells were either untreated or incubated with DMOG (1 mM) for 24 hrs. H3K9me3 levels were detected by immunofluorescent staining with antibody to H3K9me3. In FIG. 10C MCF-7 cells were incubated in increasing concentrations of DMOG or CoCl2 (200 μM) for 24 hrs. […] In FIG. 10D MCF-7 cells were incubated in DMOG (1 mM) or CoCl2 (200 μM) for the indicated time. […] In FIG. 10E MCF-7 cells expressing either a non-specific shRNA (shRNA^Con) or shRNA targeting Hif1α (shRNA^Hif1α) were incubated with DMOG or CoCl2 (200 μM) for 24 hrs.
Immunofluorescence: Cells (on cover slides) were fixed in phosphate-buffered saline (PBS) containing 2% paraformaldehyde. Cells were permeabilized in 0.2% Triton X-100 in PBS for 5mins, and then blocked in fetal bovine serum for 20 min, Primary antibodies were prepared in 10% fetal bovine serum supplemented with 0.2% saponin. After a 1 h incubation with primary antibody, cells were washed three times with 0.2% Tween-20 and incubated for 1 h in secondary antibody (conjugated to either Texas Red or FITC; Santa Cruz Biotechnology, CA). […]

The next data set has as its system HeLa cells. The experiment in a line: Control experiment: toxicity of DMOG to the cells over the time course. The conditions noted are these: control experiments to FIG. 2. Type of data set: cell-based.
For another data set, the target named is T1, KDM4A (Homo sapiens, UniProt O75164).
T1 construct: expressed in transfected cells; host or cells: HEK293T cells
T1 sequence (O75164 1-1064): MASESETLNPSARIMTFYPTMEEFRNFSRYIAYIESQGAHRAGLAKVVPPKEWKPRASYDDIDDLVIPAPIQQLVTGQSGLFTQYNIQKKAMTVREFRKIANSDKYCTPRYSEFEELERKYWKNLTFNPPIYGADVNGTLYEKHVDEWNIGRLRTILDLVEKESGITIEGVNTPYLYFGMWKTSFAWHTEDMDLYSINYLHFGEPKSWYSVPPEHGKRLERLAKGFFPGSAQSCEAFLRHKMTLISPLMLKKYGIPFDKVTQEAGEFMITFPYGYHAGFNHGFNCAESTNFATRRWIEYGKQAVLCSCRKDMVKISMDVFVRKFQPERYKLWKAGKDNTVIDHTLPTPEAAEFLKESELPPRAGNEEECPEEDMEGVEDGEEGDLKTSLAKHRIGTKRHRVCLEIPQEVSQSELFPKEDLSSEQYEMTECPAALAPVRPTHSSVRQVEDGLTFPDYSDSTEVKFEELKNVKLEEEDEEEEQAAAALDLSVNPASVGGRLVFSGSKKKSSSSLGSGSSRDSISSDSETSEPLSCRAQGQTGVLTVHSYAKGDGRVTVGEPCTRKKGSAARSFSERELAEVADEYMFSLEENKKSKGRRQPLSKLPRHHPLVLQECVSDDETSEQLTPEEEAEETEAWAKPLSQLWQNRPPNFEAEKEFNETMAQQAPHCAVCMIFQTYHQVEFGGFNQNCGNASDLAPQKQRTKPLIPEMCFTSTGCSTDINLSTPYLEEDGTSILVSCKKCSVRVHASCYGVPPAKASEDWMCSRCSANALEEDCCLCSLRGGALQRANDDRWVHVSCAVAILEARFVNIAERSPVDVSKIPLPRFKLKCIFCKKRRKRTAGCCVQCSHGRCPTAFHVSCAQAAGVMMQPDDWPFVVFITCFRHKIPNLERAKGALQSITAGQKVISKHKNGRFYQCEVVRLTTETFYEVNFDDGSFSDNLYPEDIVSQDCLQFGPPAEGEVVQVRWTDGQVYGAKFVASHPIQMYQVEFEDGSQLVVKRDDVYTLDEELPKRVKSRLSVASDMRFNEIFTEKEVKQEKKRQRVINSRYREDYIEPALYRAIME
The experiment in a line: H3K9me3 immunofluorescent staining in HEK293T cells transiently expressing KDM4A (FIG. 10B). Type of data set: cell-based. The following applies: DMOG 1 mM 24 hrs.

The test system of a further data set is MTA3. Type of data set: cell-based. The conditions noted are these: MCF7 cells; CoCl2 200 μM time course, FIG. 8F; DMOG only stated.
For data set [1], the system named is C57BL/6J and Balb/c mice after TBI. The experiment in a line: Murine total body irradiation (TBI) model, 30 day survival. Type of data set: in vivo, mouse. The following applies: 8 Gy TBI, DMOG 100 mg/kg ip 4 hrs before, 12 hrs and 36 hrs after TBI, 30 days. As to the method:
Mice (10 per group) were irradiated (8 Gy TBI) and survival monitored over 30 days. DMOG (100 mg/kg) or saline was administered ip 4 hrs before TBI, and 12 hrs and 36 hrs after TBI.
Mice: This study was carried out in strict accordance with the recommendations in the Guide for the Care and Use of Laboratory Animals of the National Institutes of Health. The protocol was reviewed and approved by the Dana-Farber Cancer Institute's Animal Care and Use Committee (Protocol number 06-029). All efforts were made to minimize suffering. Male Balb/c mice were purchased from Taconic (NY, USA) and C57BL/6J mice were purchased from The Jackson Laboratory (ME, USA). For total body irradiation (TBI), mice were irradiated at the dose rate of 110 cGy/min using a ^137Cs source (Gammacell® 40Exactor, Best Theratronics, Ottawa, Canada). DMOG (dissolved in saline) or saline was administered IP before and after TBI. The mice were given normal water that had undergone reverse osmosis and powdered food (Purina Pico Lab Chow) after TBI. The animals were closely inspected after TBI for ill-health and the moribund animals were sacrificed according to the guidelines in our approved ACUC protocol. The Kaplan-Meier survival curves were plotted for saline-treated and DMOG-treated cohorts. The statistical analysis of the Kaplan-Meier survival curves was performed with Graph Pad Prism Version 5 using Mantel Log-rank test.

Another data set deals with CHD4. Type of data set: cell-based. The following applies: MCF-7 cells; CoCl2 200 μM 8 hr, FIG. 8D; DMOG only stated.
The next data set has as its system Hif1α. Type of data set: cell-based.

Molecules are shown by their SMILES.

`COC(=O)CNC(=O)C(=O)OC` [DMOG, dimethyloxalylglycine]: the H3K9me3 in cells entry in the data set on H3K9me3 is given as “rapidly increased H3K9me3”. In addition, in the data set on HeLa cells, the “toxicity over the time course of the experiment” value was “did not exhibit significant toxicity”. For the same compound, the “H3K9me3 levels in cells expressing KDM4A” value on KDM4A is on record as “restored H3K9me3 levels to near normal”. The MTA3 protein levels result with MTA3 was “increased”. For the same compound, the “survival after TBI” value in data set [1] (Balb/c mice, FIG. 6B) is “significantly improved the survival”. In addition, the “survival after TBI” value in data set [1] (C57BL/6J mice, FIG. 6A) is “significantly improved the survival”. Besides, the “CHD4 mRNA levels” value with CHD4 was “increased”. In the data set on Hif1α, the “accumulation of Hif1α” value was “significant accumulation of Hif1α” and the “accumulation of Hif1α protein in combination with IR, versus agent alone” value is “much larger accumulation of Hif1α protein”.
